molecular target: T1, Mushroom tyrosinase (Agaricus bisporus, UniProt C7FF04); test: Mushroom tyrosinase inhibitory assay (spectrophotometric, L-tyrosine substrate); assay type: biochemical; details: qualitative statement; comparison with positive control kojic acid where stated
Procedure: The compounds were firstly dissolved in DMSO at a concentration of 1.0 mg/mL and then diluted to different concentrations with DMSO. […] The reaction mixtures (3.0 mL) were vortexed and the initial absorbance at 492 nm was measured. After incubation for 20 min at 37 °C, the final absorbance at the same wavelength was taken. […] B1 is the absorbance at 492 nm of test sample at 0 min, B2 is the absorbance at 492 nm of test sample at 20 min.

T1 sequence (G1K3P4 entry or part of it): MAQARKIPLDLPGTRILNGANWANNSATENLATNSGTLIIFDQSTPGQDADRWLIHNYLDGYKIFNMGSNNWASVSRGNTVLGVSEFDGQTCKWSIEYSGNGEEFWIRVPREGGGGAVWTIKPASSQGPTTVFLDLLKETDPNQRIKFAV
T1 sequence (C7FF04 1-392): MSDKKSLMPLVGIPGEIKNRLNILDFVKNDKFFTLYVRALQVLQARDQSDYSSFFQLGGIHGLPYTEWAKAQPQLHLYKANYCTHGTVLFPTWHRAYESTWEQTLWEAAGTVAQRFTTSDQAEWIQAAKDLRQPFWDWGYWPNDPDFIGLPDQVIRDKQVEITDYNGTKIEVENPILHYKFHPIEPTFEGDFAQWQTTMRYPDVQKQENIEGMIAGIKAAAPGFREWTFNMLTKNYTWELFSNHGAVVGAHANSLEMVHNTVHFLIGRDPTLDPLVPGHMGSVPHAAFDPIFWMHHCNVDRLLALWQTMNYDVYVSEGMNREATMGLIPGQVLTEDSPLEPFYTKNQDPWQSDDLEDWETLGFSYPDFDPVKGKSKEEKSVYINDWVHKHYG

| Structure (SMILES) | Mushroom tyrosinase inhibitory activity, result in words |
| --- | --- |
| Oc1cc(O)cc(-c2cc3ccc(O)cc3o2)c1 [Moracin M (14), moracin M] | much stronger |
| C=C(C)C(=O)Cc1c(-c2ccc(O)cc2O)oc2c3c(cc(O)c2c1=O)OC(C)(C)C=C3 [Morusone (1), 2-(2,4-dihydroxyphenyl)-5-hydroxy-8,8-dimethyl-3-(3-methyl-2-oxo-but-3-enyl)-8H-pyrano[2,3-f]chromen-4-one] | weak |
| CC(C)=CCc1c(O)ccc(C(=O)/C=C/c2ccc(O)cc2O)c1O [Morachalcone A (4), morachalcone A] | much stronger |
| O=C1CC(c2ccc(O)cc2O)Oc2cc(O)cc(O)c21 (stereo not shown) [Steppogenin (2), steppogenin] | much stronger |
| O=C(/C=C/c1ccc(O)cc1O)c1ccc(O)cc1O [2,4,2′,4′-Tetrahydroxychalcone (3), 2,4,2′,4′-Tetrahydroxychalcone] | much stronger |
| Oc1cc(O)cc(/C=C/c2ccc(O)cc2O)c1 [Oxyresveratrol (5), oxyresveratrol] | much stronger |

molecular target: T1, Mushroom tyrosinase; test: not given; set-up: method as in PMID 26616992; details: single resorcinol derivatives, weak activity; read-out: Tyrosinase inhibitory activity IC50; cited from earlier work

| Structure (SMILES) | IC50 |
| --- | --- |
| CC(=O)c1ccc(O)cc1O [2,4-dihydroxyacetophenone] | > 200 µM |

Source: PMC6274457, “Characterization of a New Flavone and Tyrosinase Inhibition Constituents from the Twigs of Morus alba L” (Molecules, 2016)
